Experimental data from patent US9422357B2, “Glycosylated polypeptide and drug composition containing said polypeptide” (priority 2011, dated 2016).

Tests used:
[1] = Pharmacokinetics test with rats (intravenous and subcutaneous administration); conditions: rat
Description: PBS solution was prepared by dissolving 1 tablet of Phosphate buffered saline (P4417 from Sigma) in 200 mL of ultrapure water.
0.2 mL of the collected blood was promptly mixed with 0.2 mL of the aprotinin-containing EDTA-PBS solution prepared in the above 68-1, and left on ice for 30 minutes or more. […] As blank plasma, plasma obtained by similarly treating the blood collected from untreated rat cervical vein was employed. Plasma samples were frozen in storage until employed for measurement. […] The standard solution for creating a standard curve was prepared as follows. First, the blank plasma obtained in the above 68-2 was diluted with the assay buffer supplied in the EIA kit similarly to the plasma sample, and this was used as the assay buffer for standard solution preparation (for example, when diluting the plasma sample to 100-fold, 1/100 amount of blank plasma was added to the assay buffer supplied in the EIA kit, and this was used as the assay buffer for standard solution preparation). […] Moreover, the predicted initial concentration (C0) was determined by the extrapolation method for intravenous administration, t1/2 and MRT were calculated, and the maximum plasma concentration (Cmax) was determined from the actual value for subcutaneous administration.
Moreover, the parameters obtained were employed to calculate bioavailability from the following mathematical formula. […]

[2] = system: amylase, LDH, CPK; test: Gastrointestinal obstruction model, blood parameters (amylase, LDH, CPK); conditions: Table 10; rat gastrointestinal obstruction model
Description: This experimental line was carried out as a test line to evaluate the promotion of intestinal fluid absorption or the secretory suppressing action, using the change in the intestinal fluid weight in the jejunum after bowel obstruction as an indicator. Moreover, blood parameters of deviation enzymes amylase (pancreas), lactate dehydrogenase (LDH, liver), and creatine phosphokinase (CPK, skeletal muscle, cardiac muscle etc.) were measured as indicators of tissue disorders.
Anesthesia was introduced with inhalation of 2% isoflurane and laughing gas:oxygen=7:3, and this was maintained throughout the surgery. A median incision was made in the abdomen, and the jejunum at about 10 cm from the musculus suspensorius duodeni was ligated with a surgical suture. Then, the incision site was promptly sutured, and the rats were fasted until compound administration. […]
One hour after compound administration, a median incision was made in the abdomen under inhalation anesthesia, and 1.5 mL of blood was collected from the abdominal vena cava. […] The fluid and blood on the jejunum surface were removed with a paper towel, nerves, blood vessels, and fat attached to the jejunum was removed, this was cut into 6 cm lengths, and wet weight was measured. This was then dried at 36 degrees for 24 hours, and dry weight was measured. […]

SMILES: C[C@H](N)C(=O)NCC(=O)N[C@H]1CSSC[C@@H](C(=O)O)NC(=O)[C@H](CO)NC(=O)[C@H]([C@@H](C)O)NC(=O)[C@H](Cc2ccccc2)NC(=O)[C@H]([C@@H](C)O)NC(=O)[C@H](CCCCN)NC(=O)[C@H](Cc2c[nH]c3ccccc23)NC(=O)[C@H](Cc2ccccc2)NC(=O)[C@H](Cc2ccccc2)NC(=O)[C@H](CC(N)=O)NC(=O)[C@H](CCCCN)NC1=O [SRIF14]
- C0, intravenous administration ([1]; Table 5D, no unit at the table (Table 4: nM), extrapolation): 819
- C0, intravenous administration ([1]; Tables 5B-5F, no unit printed in these tables (Table 5A footnote: nM)): 819

SMILES: C[C@@H](O)[C@@H]1NC(=O)[C@H](CCCCN)NC(=O)[C@@H](Cc2c[nH]c3ccccc23)NC(=O)[C@H](Cc2ccccc2)NC(=O)[C@@H](NC(=O)[C@H](N)Cc2ccccc2)CSSC[C@@H](C(=O)N[C@H](CO)[C@@H](C)O)NC1=O [octreotide]
- LDH activity compared to the vehicle [2]: low value compared to the vehicle
- amylase activity compared to the vehicle [2]: equivalent to the vehicle
